This note sets out measurements from US9062071B2, “Substituted piperidines as HDM2 inhibitors” (Merck Sharp & Dohme Corp, priority 2011, dated 2015).

Structures are written as SMILES.

Chain of HDM2 protein (Q00987 whole entry): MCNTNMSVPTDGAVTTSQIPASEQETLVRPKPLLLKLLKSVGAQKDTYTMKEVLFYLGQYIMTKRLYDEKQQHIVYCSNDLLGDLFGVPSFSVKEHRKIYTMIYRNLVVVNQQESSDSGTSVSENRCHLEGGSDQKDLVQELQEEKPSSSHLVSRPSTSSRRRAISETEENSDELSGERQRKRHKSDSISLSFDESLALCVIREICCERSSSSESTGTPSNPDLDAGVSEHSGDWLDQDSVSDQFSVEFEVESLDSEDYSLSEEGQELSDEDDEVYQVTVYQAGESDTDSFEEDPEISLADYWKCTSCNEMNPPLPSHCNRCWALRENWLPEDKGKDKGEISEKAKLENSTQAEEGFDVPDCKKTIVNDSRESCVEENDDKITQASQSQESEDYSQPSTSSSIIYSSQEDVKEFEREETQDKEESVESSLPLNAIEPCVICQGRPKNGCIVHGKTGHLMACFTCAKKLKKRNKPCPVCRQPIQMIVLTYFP

In the first experiment the target is HDM2 protein (Homo sapiens, UniProt Q00987). Kind of experiment: fluorescence polarization screening assay (FP IC50). The conditions noted are these: class symbols. In kind it is binding. As for the experimental part:
The compounds were evaluated to determine activity at the HDM2 protein by known methods such as the fluorescence polarization screening assay that measures the inhibitory concentration that achieves 50% of maximal activity (FP IC50) and the dissociation constant for inhibitor binding (FP Ki). [Zhang et al., J. Analytical Biochemistry 331: 138-146 (2004)].
In general terms: Polarisation of emitted light reports the rotation of a fluorescent probe.
As usually defined, the IC50 is the concentration at which inhibition is half-maximal. A higher IC50 goes with weaker potency in that assay. With `CCC[C@H]1N(C(=O)c2ncccc2C(F)(F)F)CCC[C@@]1(Oc1csc(C(F)(F)F)c1)C(=O)N1CCc2cc(Cl)ccc2C1CC(C)(C)C(=O)NS(C)(=O)=O` (single isomer, unassigned) [Compound A68], the IC50 was 1 to 100 nM.

`CCC[C@H]1N(C(=O)c2ncccc2C(F)(F)F)CCC[C@@]1(Oc1csc(C(F)(F)F)c1)C(=O)N1CCc2cc(Cl)ccc2C1CC(C)(C)C(=O)NS(C)(=O)=O` (single isomer, unassigned) [Compound A69] gave an IC50 of 1 to 100 nM.

With `CCC[C@H]1N(C(=O)c2ncccc2C(F)(F)F)CCC[C@@]1(Oc1csc(C(F)(F)F)c1)C(=O)N1Cc2cc(F)ccc2CC1C(=O)O` (stereo in doubt) [Compound A126, (3S)-7-fluoro-2-{[(2R,3S)-2-propyl-1-{[3-(trifluoromethyl)pyridin-2-yl]carbonyl}-3-{[5-(trifluoromethyl)thiophen-3-yl]oxy}piperidin-3-yl]carbonyl}-1,2,3,4-tetrahydroisoquinoline-3-carboxylic acid], the IC50 fell in the range of 1 to 100 nM.

Compound `COCCN(CCOC)CC[C@H]1N(C(=O)c2cnccc2C(F)(F)F)CCC[C@@]1(Oc1csc(C(F)(F)F)c1)C(=O)N1CCc2cc(Cl)ccc2C1` [Compound A2, 2-[(2R,3S)-3-[(6-chloro-3,4-dihydroisoquinblin-2(1H)-yl)carbonyl]-1-{[4-(trifluoromethyl)byridin-3-yl]carbonyl}-3-{[5-(trifluoromethyl)thiophen-3-yl]oxy}piperidin-2-yl]-N,N-bis(2-methoxyethyl)ethanamine] registered a half-maximal inhibitory concentration (IC50) of 1 to 100 nM.

In turn, `O=C(c1cnccc1C(F)(F)F)N1CCC[C@@](Oc2csc(C(F)(F)F)c2)(C(=O)N2CCc3ccc(Cl)cc3C2)[C@H]1CCN1CCOCC1` [Compound A3, 7-chloro-2-{[(2R,3S)-2-(2-morpholin-4-ylethyl)-1-{[4-(trifluoromethyl)pyridin-3-yl]carbonyl}-3-{[5-(trifluoromethyl)thiophen-3-yl]oxy}piperidin-3-yl]carbonyl}-1,2,3,4-tetrahydroisoquinoline] registered an IC50 of 101 to 20000 nM.

Compound `O=C(c1cnccc1C(F)(F)F)N1CCC[C@@](Oc2csc(C(F)(F)F)c2)(C(=O)N2CCc3cc(Cl)ccc3C2)[C@H]1CCN1CCOCC1` [Compound A4, 6-chloro-2-{[(2R,3S)-2-(2-morpholin-4-ylethyl)-1-{[4-(trifluoromethyl)pyridin-3-yl]carbonyl}-3-{[5-(trifluoromethyl)thiophen-3-yl]oxy}piperidin-3-yl]carbonyl}-1,2,3,4-tetrahydroisoquinoline] came in with a 50% inhibitory concentration (IC50) of 1 to 100 nM.

Take `CCC[C@H]1N(C(=O)c2ncccc2C(F)(F)F)CCC[C@@]1(Oc1csc(C(F)(F)F)c1)C(=O)N1CCc2ccc(C#N)cc2C1` [Compound A5, 2-{[(2R,3S)-2-propyl-1-{[3-(trifluoromethyl)pyridin-2-yl]carbonyl}-3-{[5-(trifluoromethyl)thiophen-3-yl]oxy}piperidin-3-yl]carbonyl}-1,2,3,4-tetrahydroisoquinoline-7-carbonitrile]: the IC50 is 101 to 20000 nM.

Consider `CCC[C@H]1N(C(=O)c2ncccc2C(F)(F)F)CCC[C@@]1(Oc1csc(C(F)(F)F)c1)C(=O)N1CCc2ccc(C(N)=O)cc2C1` [Compound A6, 2-{[(2R,3S)-2-propyl-1-{[3-(trifluoromethyl)pyridin-2-yl]carbonyl}-3-{[5-(trifluoromethyl)thiophen-3-yl]oxy}piperidin-3-yl]carbonyl}-1,2,3,4-tetrahydroisoquinoline-7-carboxamide], for which the IC50 lay within 101 to 20000 nM.

The compound `O=C(c1ncccc1C(F)(F)F)N1CCC[C@@](Oc2csc(C(F)(F)F)c2)(C(=O)N2CCc3cc(F)ccc3C2)[C@H]1CCN1CCOCC1` [Compound A7, 6-fluoro-2-{[(2R,3S)-2-(2-morpholin-4-ylethyl)-1-{[3-(trifluoromethyl)pyridin-2-yl]carbonyl}-3-{[5-(trifluoromethyl)thiophen-3-yl]oxy}piperidin-3-yl]carbonyl}-1,2,3,4-tetrahydroisoquinoline] showed an IC50 of 1 to 100 nM.

For `CCC[C@H]1N(C(=O)c2ncccc2C(F)(F)F)CCC[C@@]1(Oc1csc(C(F)(F)F)c1)C(=O)N1CCc2sccc2C1` [Compound A8, 5-{[(2R,3S)-2-propyl-1-{[3-(trifluoromethyl)pyridin-2-yl]carbonyl}-3-{[5-(trifluoromethyl)thiophen-3-yl]oxy}piperidin-3-yl]carbonyl}-4,5,6,7-tetrahydrothieno[3,2-c]pyridine], the IC50 fell in the range of 101 to 20000 nM.

In turn, `CCC[C@H]1N(C(=O)c2ncccc2C(F)(F)F)CCC[C@@]1(Oc1csc(C(F)(F)F)c1)C(=O)N1CCc2sc(C(=O)OCC)cc2C1` [Compound A9, ethyl 5-{[(2R,3S)-2-propyl-1-{[3-(trifluoromethyl)pyridin-2-yl]carbonyl}-3-{[5-(trifluoromethyl)thiophen-3-yl]oxy}piperidin-3-yl]carbonyl}-4,5,6,7-tetrahydrothieno[3,2-c]pyridine-2-carboxylate] returned an IC50 of 101 to 20000 nM.

As for `CCC[C@H]1N(C(=O)c2ncccc2C(F)(F)F)CCC[C@@]1(Oc1csc(C(F)(F)F)c1)C(=O)N1CCc2sc(C(=O)O)cc2C1` [Compound A10, 5-{[(2R,3S)-2-propyl-1-{[3-(trifluoromethyl)pyridin-2-yl]carbonyl}-3-{[5-(trifluoromethyl)thiophen-3-yl]oxy}piperidin-3-yl]carbonyl}-4,5,6,7-tetrahydrothieno[3,2-c]pyridine-2-carboxylic acid], the concentration for half-maximal inhibition (IC50) was in the range of 101 to 20000 nM.

In turn, `CCC[C@H]1N(C(=O)c2ncccc2C(F)(F)F)CCC[C@@]1(Oc1csc(C(F)(F)F)c1)C(=O)N1CCc2cc(N)ccc2C1` [Compound A11, 2-{[(2R,3S)-2-propyl-1-{[3-(trifluoromethyl)pyridin-2-yl]carbonyl}-3-{[5-(trifluoromethyl)thiophen-3-yl]oxy}piperidin-3-yl]carbonyl}-1,2,3,4-tetrahydroisoquinolin-6-amine] yielded a concentration for half-maximal inhibition (IC50) of 101 to 20000 nM.

In turn, `CCC[C@H]1N(C(=O)c2ncccc2C(F)(F)F)CCC[C@@]1(Oc1csc(C(F)(F)F)c1)C(=O)N1CCc2cc(Cl)ccc2C1CN1CCOCC1` (stereo partly drawn) [Compound A12, 6-chloro-1-(morpholin-4-ylmethyl)-2-{[(2R,3S)-2-propyl-1-{[3-(trifluoromethyl)pyridin-2-yl]carbonyl}-3-{[5-(trifluoromethyl)thiophen-3-yl]oxy}piperidin-3-yl]carbonyl}-1,2,3,4-tetrahydroisoquinoline] registered an IC50 of 1 to 100 nM.

Compound `CCC[C@H]1N(C(=O)c2ncccc2C(F)(F)F)CCC[C@@]1(Oc1csc(C(F)(F)F)c1)C(=O)N1CCc2sc(Cl)cc2C1C(=O)O` (stereo partly drawn) [Compound A13, 2-chloro-5-{[(2R,3S)-2-propyl-1-{[3-(trifluoromethyl)pyridin-2-yl]carbonyl}-3-{[5-(trifluoromethyl)thiophen-3-yl]oxy}piperidin-3-yl]carbonyl}-4,5,6,7-tetrahydrothieno[3,2-c]pyridine-4-carboxylic acid] showed an IC50 of 1 to 100 nM.

The experiment is the same for the next values; noted with them: numeric value.
`COCCN(CCOC)CC[C@H]1N(C(=O)c2cnccc2C(F)(F)F)CCC[C@@]1(Oc1csc(C(F)(F)F)c1)C(=O)N1CCc2ccc(Cl)cc2C1` [Compound A1, 2-[(2R,3S)-3-[(7-chloro-3,4-dihydroisoquinblin-2(1H)-yl)carbonyl]-1-{[4-(trifluoromethyl)byridin-3-yl]carbonyl}-3-{[5-(trifluoromethyl)thiophen-3-yl]oxy}piperidin-2-yl]-N,N-bis(2-methoxyethyl)ethanamine] returned a concentration for half-maximal inhibition (IC50) of 472000 nM.
